One series addresses Aβ40 (Homo sapiens, UniProt P05067). Put plainly: Inhibition of Aβ40 fibrillogenesis, thioflavin T fluorescence assay. In kind it is biochemical.
Another series addresses PrP106-126 (Homo sapiens, UniProt P04156). The series is classed as biochemical.
The nature of the next series: Calcein leakage assay. In kind it is in vitro ADME. Further details: calcein escaped from the vesicles: dose or concentration left out as unconfirmed. As to the method: The leakage of vesicle contents was monitored by measuring the release of calcein (Terzi et al., 1995 and Pillot et al, 1996). Vesicles were prepared and separated from free calcein as described above for the radioactive compounds, except that the rehydration buffer contained […] calcein and 10 mM Na-EDTA. In the kinetic assay, peptide was added to the vesicle solution and the fluorescence was measured at ten minute intervals with excitation and emission wavelengths of 490 and 520 nm, respectively. Data were fit to an equation for a first order rate process. For the concentration dependence assay, different amounts of peptide were added to the vesicle solution and the fluorescence was measured after a two hour incubation at 37° C. The maximum leakage was determined by lysing the vesicles with the addition of 0.5% (w/v) Triton X-100.
The leakage of vesicle contents was monitored by measuring the release of calcein (Terzi et al., 1995; Pillot et al., 1996). Vesicles were prepared and separated from free calcein as described herein for the radioactive compounds, except that the rehydration buffer contained 40 mM calcein and 1 mM Na-EDTA. […] The maximum fluorescence was measured by lysing the vesicles with the addition of 0.1% (w/v) Triton X-100.

Series [1] can be described thus: Circular dichroism under denaturing conditions (urea, pH, GuHCl, temperature). The series is classed as physicochemical. The settings on record: pH 2.5-10.5, 8M GuHCl, 20° and 70° C. Here is the method:
A 1 mm or 0.1 mm pathlength cell was used for measurements, depending on the concentration of the solution. Six to eight scans were acquired from 250 nm to 200 nm. For the pH experiment, a 100 mM phosphate-citrate buffer was used for pH 2.5-6.5, a 100 mM phosphate buffer was used for pH 7.5-8.5 and a 100 mM glycine-NaOH buffer was used for pH 9.5-10.5.
The circular dichroic (CD) spectra were recorded using a Jasco P715 spectropolarimeter. […] A 1 mm or 0.1 mm pathlength cell was used for measurements, depending on the concentration of the solution. Six to eight scans were acquired from 250 nm to 200 nm. For the pH experiment, a 100 mM phosphate-citrate buffer was used for pH 2.5-6.5, a 100 mM phosphate buffer was used for pH 7.5-8.5 and a 100 mM glycine-NaOH buffer was used for pH 9.5-10.5. For the urea denaturation experiment, Ad 16-20m was dissolved in 100 mM phosphate buffer pH 7.4 with 0-8.5 M urea.

The target in a further series is Aβ40 fibrils (Homo sapiens, UniProt P05067).
Sequence of Aβ40 fibrils (P05067 672-711): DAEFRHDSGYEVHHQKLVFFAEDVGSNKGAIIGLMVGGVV
Series [2] can be described thus: Solubility in aqueous media and organic solvents.

Here are results for 1 compound from patent publication US20030130484A1, “Inhibitors and disassemblers of fibrillogenesis” (priority 2001, published 2003).

Sequence of PrP106-126 (P04156 106-126 limits assumed): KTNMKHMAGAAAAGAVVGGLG
Sequence of Aβ40 (P05067 672-711): as the sequence (P05067 672-711) above

As a reminder, the solubility is the dissolved amount per volume that the medium holds. `CC(=O)N[C@@H](CCCCN)C(=O)N(C)[C@@H](CC(C)C)C(=O)N[C@H](C(=O)N(C)[C@@H](Cc1ccccc1)C(=O)N[C@@H](Cc1ccccc1)C(N)=O)C(C)C` [Aβ16-20m, Ac—NH—K(me-L)V(me-F)F—CONH2]: at Aβ40, the “effect on Aβ40 fibril formation (in words)” value is reported as “highly effective inhibitor”. At PrP106-126, the “inhibition of fibril formation by PrP106-126” value is recorded as “ineffective”. Besides, the “leakage of calcein from vesicles (in words)” value in “Calcein leakage assay” is listed as “causes the leakage of calcein”. For the same compound, in “Calcein leakage assay” (highest concentration tested), the “calcein escaped from the vesicles” value is listed as 82%. Besides, the calcein efflux result in the series “Calcein leakage assay” (low micromolar concentrations of peptide) is listed as “less than 10%”. In series [1], the “stability of peptide structure by CD (mean residue ellipticity at 226 nm)” value was “extremely stable and resistant to chemical denaturation”. On Aβ40 fibrils, this compound showed a half-life of 24 ± 7 min. Also, in series [2], the solubility was ≥ 30 mM and the “solubility in aqueous media (in words)” value was “highly soluble in aqueous media”. Moreover, in series [2] (DMF, diethyl ether, methylene chloride, chloroform), the “solubility in organic solvents (in words)” value was “highly soluble”.
